# Test results from patent US11542263B2 (NeuroCycle Therapeutics, Inc., priority 2018, dated 2023).
# Where two headings read alike, the source gives them in different places.
# Tests used:
# [1] = Solubility in aqueous buffers and simulated fluids, 24 h, HPLC; format: physicochemical; conditions: for solubility at 24 h: 22.5 °C, thermodynamic from solid, read-out: Measured Conc. (solubility); for solubility at 24 h / Measured Conc. (solubility): ~24 h
# Description: About 2 mg of test article was added to a 1.5 mL vials which contained ˜1.0 mL of one medium listed in Table 7 and Table 8, which was then sealed. The mixtures were stirred at ˜20-25° C. for ˜24 hours. After that, the mixture was filtered by 0.45 μm filter membrane and then the supernatant was analyzed by HPLC.
# [2] = Intrinsic dissolution rate in SGF; format: physicochemical; conditions: 37° C., 100 rpm, linear scope within 2 to 120 min
# Description: About 100 mg of Free Base Polymorphic Form A or Phosphate Polymorphic Form A was weighed into the intrinsic dissolution apparatus and the sample compressed for 1 minute with a compression force of ˜4 MPa to form a compacted pellet within the stainless-steel die. All loose powder was removed from the surface of the die. The intrinsic dissolution shaft was connected with the stainless-steel die and tightened so only one surface of the pellet was exposed (surface area=0.496 cm^2). The shaft in the spindle was adjusted to ensure the exposed surface of the compacted tablet was ˜3.8 cm from the bottom of the vessel when lowered. The temperature of chamber water was set at 37° C.±0.5° C., the shaft rotation at 100 rpm and the sampling time points at 2, 5, 10, 15, 30, 45, 60, 120 min. SGF was used as dissolution medium (900 mL). At each time point, solution samples were filtered, and the supernatant was analyzed by HPLC-UV.
# [3] = Pharmacokinetics in rats; format: in vivo, Sprague-dawley rats; conditions: rat, mean
# Description: To evaluate the pharmacokinetics (PK) of Phosphate Polymorphic Form A, suspensions or solutions were dosed by either oral gavage (0.5% methyl cellulose) or IV (60% PEG400/40% saline) in normal, healthy, male Sprague-dawley rats with serial blood collection focused on the first 48 hours of exposure. Rats were dosed with vehicle or test compounds at 1 mg/kg (IV) or 2 mg/kg (PO). Approximately 0.2 mL blood was collected at each time point. All blood samples were collected jugular vein puncture. All blood samples were transferred into plastic microcentrifuge tubes containing 5 μL of EDTA-K2 as anti-coagulant or pre-chilled commercial EDTA-K2 tubes and placed on wet ice until centrifugation. Harvested blood samples were centrifuged within 30 min of collection at 7,000 rpm for 10 minutes. The extracts were analyzed for compound concentration by LC/MS/MS. Data were analyzed with Phoenix WinNonlin 6.3 using the IV-Noncompartmental model 201 (IV bolus input) and PO-Noncompartmental model 200 (extravascular input) methods.
# [4] = Canine pharmacokinetics; format: in vivo, Beagle dogs; conditions: male, beagle, plasma, dog, mean
# Description: To evaluate the pharmacokinetics (PK) Phosphate Polymorphic Form A, suspensions or solutions were dosed by either oral gavage (0.5% methyl cellulose) or IV (60% PEG400/40% saline) in normal, healthy, male Beagle dogs with serial blood collection focused on the first 48 hours of exposure. Dogs were dosed with vehicle or test compounds at 1 mg/kg (IV) or 2 mg/kg (PO). Approximately 0.5 mL blood was collected at each time point. All blood samples were collected from a peripheral vein. Blood was collected into commercially available tubes (Jiangsu Kangjian medical supplies co., LTD) containing Potassium (K2) EDTA*2H2O and placed on wet ice until processed for plasma. Samples were centrifuged (3,000×g for 10 minutes at 2 to 8° C.) within one hour of collection. The extracts were analyzed for compound concentration by LC/MS/MS. Data were analyzed with Phoenix WinNonlin 6.3 using the IV-Noncompartmental model 201 (IV bolus input) and PO-Noncompartmental model 200 (extravascular input) methods.
# [5] = Approximate solubility of TPA023B Phosphate in solvents (stepwise solvent addition); format: physicochemical; conditions: thermodynamic from solid
# Description: The total amount of solvent was recorded to calculate the approximate solubility in these solvents.
# [6] = male, Sprague-Dawley, plasma, IV 1 mg/kg
# [7] = male, Sprague-Dawley, plasma, PO 2 mg/kg
smiles,measurement,setting,value
"CC(C)(O)c1cnn2c(-c3ccc(F)c(-c4c(F)cccc4C#N)c3)cnc2n1.O=P(O)(O)O [Phosphate Polymorphic Form A, 2′,6-difluoro-5′-[3-(1-hydroxy-1-methylethyl)-imidazo[1,2-b][1,2,4]triazin-7-yl]biphenyl-2-carbonitrile]",solubility at 24 h,"[1]; aqueous buffer, pH 3.0 citrate buffer (100 mM), initial pH 3.05, LOQ: 0.1 μg/mL",0.16 µg/mL
same,solubility at 24 h,"[1]; pH 1.8, simulated gastric fluid, SGF, initial pH 1.80, ~20-25° C.",3.85 µg/mL
same,solubility at 24 h,"[1]; simulated gastric fluid, pH 1.2 Hydrochloric Acid Buffer (50 mM), initial pH 1.17, ~20-25° C.",22.9 µg/mL
same,solubility at 24 h,"[1]; FaSSIF, initial pH 6.51, ~20-25° C.",7.14 µg/mL
same,solubility at 24 h,"[1]; FeSSIF, initial pH 5.00, ~20-25° C.",50.7 µg/mL
same,solubility at 24 h,"[1]; Purified water, initial pH 7.02, ~20-25° C., target 2 mg/mL",0.4 µg/mL
same,pH value of supernatant,"[1]; FaSSIF, initial pH 6.51",6.09
same,pH value of supernatant,"[1]; FeSSIF, initial pH 5.00",4.94
same,pH value of supernatant,"[1]; Purified water, initial pH 7.02",2.62
same,pH value of supernatant,"[1]; SGF, initial pH 1.80",1.67
same,solubility compared with Free Base Polymorphic Form A,"[1]; in SGF, FaSSIF and FeSSIF",higher solubility
same,pH value of supernatant,"[1]; pH 1.2 Hydrochloric Acid Buffer (50 mM), initial pH 1.17",0.99
same,pH value of supernatant,"[1]; pH 3.0 citrate buffer (100 mM), initial pH 3.05",2.96
same,pH value of supernatant,"[1]; pH 4.5 citrate buffer (100 mM), initial pH 4.44",4.41
same,Measured Conc. (solubility),"[1]; pH 4.5 citrate buffer (100 mM), initial pH 4.44, LOQ: 0.1 μg/mL",<LOQ
same,pH value of supernatant,"[1]; pH 7.4 PBS (50 mM), initial pH 7.40",7.09
same,Measured Conc. (solubility),"[1]; pH 7.4 PBS (50 mM), initial pH 7.40, LOQ: 0.1 μg/mL",<LOQ
same,pH value of supernatant,"[1]; pH 9.0 USP Buffer (50 mM), initial pH 8.94",8.46
same,Measured Conc. (solubility),"[1]; pH 9.0 USP Buffer (50 mM), initial pH 8.94, LOQ: 0.1 μg/mL",<LOQ
same,intrinsic dissolution rate,[2],0.184 mg cm^−2 min^−1
same,AUC(0-inf),[3]; [6],12100 ng·h/mL
same,AUC(0-t),[3]; [6],11300 ng·h/mL
same,clearance,[3]; [6],1.41 mL/min/kg
same,half-life,[3]; [6],12.4 h
same,Vd,"[3]; male, Sprague-Dawley, plasma, IV 1 mg/kg, read-out: Vdss",1.49 L/kg
same,AUC(0-inf),[3]; [7],16000 ng·h/mL
same,AUC(0-t),[3]; [7],15000 ng·h/mL
same,Cmax,[3]; [7],794 ng/mL
same,Tmax,[3]; [7],7 h
same,bioavailability,[3]; [7],66.1%
same,half-life,[3]; [7],11.1 h
same,AUCExtra,[3]; PO 2 mg/kg,6.25%
same,AUC(0-inf),[4]; IV 1 mg/kg,9170 ng·h/mL
same,AUC(0-t),[4]; IV 1 mg/kg,7850 ng·h/mL
same,clearance,[4]; IV 1 mg/kg,2.52 mL/min/kg
same,half-life,[4]; IV 1 mg/kg,12.8 h
same,Vd,"[4]; IV 1 mg/kg, read-out: Vdss",1.93 L/kg
same,AUC(0-inf),[4]; PO 2 mg/kg,13900 ng·h/mL
same,AUC(0-t),[4]; PO 2 mg/kg,11700 ng·h/mL
same,Cmax,[4]; PO 2 mg/kg,649 ng/mL
same,Tmax,[4]; PO 2 mg/kg,3.33 h
same,bioavailability,[4]; PO 2 mg/kg,74.7%
same,half-life,[4]; PO 2 mg/kg,12.2 h
same,solubility,"[5]; aqueous with cosolvent or surfactant or cyclodextrin, Acetone/H2O (1/1, v/v), 50° C.",2000 to 10000 µg/mL
same,solubility,"[5]; aqueous with cosolvent or surfactant or cyclodextrin, Acetone/H2O (1/1, v/v), RT",< 2000 µg/mL
same,solubility,"[5]; aqueous with cosolvent or surfactant or cyclodextrin, EtOH/H2O (1/1, v/v), 50° C.",< 2000 µg/mL
same,solubility,"[5]; aqueous with cosolvent or surfactant or cyclodextrin, EtOH/H2O (1/1, v/v), RT",< 2000 µg/mL
same,solubility,"[5]; organic solvent or mixture, 1,4-Dioxane, 50° C.",20000 to 25000 µg/mL
same,solubility,"[5]; organic solvent or mixture, 1,4-Dioxane, RT",20000 to 25000 µg/mL
same,solubility,"[5]; organic solvent or mixture, Acetone, 50° C.",< 10000 µg/mL
same,solubility,"[5]; organic solvent or mixture, Acetone, RT",6000 to 10000 µg/mL
same,solubility,"[5]; organic solvent or mixture, Acetonitrile (ACN), 50° C.",2000 to 10000 µg/mL
same,solubility,"[5]; organic solvent or mixture, Acetonitrile (ACN), RT",< 2000 µg/mL
same,solubility,"[5]; organic solvent or mixture, DCM, 50° C.",10000 to 50000 µg/mL
same,solubility,"[5]; organic solvent or mixture, DCM, RT",8000 to 10000 µg/mL
same,solubility,"[5]; organic solvent or mixture, DMF, RT",> 100000 µg/mL
same,solubility,"[5]; organic solvent or mixture, DMSO, RT",> 100000 µg/mL
same,solubility,"[5]; organic solvent or mixture, EtOAc, 50° C.",< 2000 µg/mL
same,solubility,"[5]; organic solvent or mixture, EtOAc, RT",< 2000 µg/mL
same,solubility,"[5]; organic solvent or mixture, Ethanol, 50° C.",10000 to 50000 µg/mL
same,solubility,"[5]; organic solvent or mixture, Ethanol, RT",< 8000 µg/mL
same,solubility,"[5]; organic solvent or mixture, Heptane, 50° C.",< 2000 µg/mL
same,solubility,"[5]; organic solvent or mixture, Heptane, RT",< 2000 µg/mL
same,solubility,"[5]; organic solvent or mixture, Isopropanol, 50° C.",10000 to 50000 µg/mL
same,solubility,"[5]; organic solvent or mixture, Isopropanol, RT",< 8000 µg/mL
same,solubility,"[5]; organic solvent or mixture, MEK, 50° C.",< 10000 µg/mL
same,solubility,"[5]; organic solvent or mixture, MEK, RT",2000 to 4000 µg/mL
same,solubility,"[5]; organic solvent or mixture, MTBE, 50° C.",< 2000 µg/mL
same,solubility,"[5]; organic solvent or mixture, MTBE, RT",< 2000 µg/mL
same,solubility,"[5]; organic solvent or mixture, Methanol, 50° C.",10000 to 50000 µg/mL
same,solubility,"[5]; organic solvent or mixture, Methanol, RT",8000 to 10000 µg/mL
same,solubility,"[5]; organic solvent or mixture, THF, 50° C.",< 50000 µg/mL
same,solubility,"[5]; organic solvent or mixture, THF, RT",20000 to 50000 µg/mL
same,solubility,"[5]; organic solvent or mixture, Toluene, 50° C.",< 2000 µg/mL
same,solubility,"[5]; organic solvent or mixture, Toluene, RT",< 2000 µg/mL
same,solubility,"[5]; water, H2O, 50° C.",< 2000 µg/mL
same,solubility,"[5]; water, H2O, RT",< 2000 µg/mL
